# Source: a melting point compilation (Tetko et al.; mined from patent text by program, amines drawn as free bases though some values may be those of a salt)
row,Compound,melting point [°C]
1,CC(=O)N1CCc2c(sc3nc(CN4C(=O)CCC4=O)c(Cl)c(-c4ccc(O)cc4)c23)C1,300
2,CNC(=O)Nc1cccc(-c2noc(C(F)(F)F)n2)c1,141 to 143
3,CCCCC(=O)NCc1ccc(I)cc1,80 to 81
4,CC(=O)OC1CC2=CC(=O)C3C4CCC(C(C)CCCC(C)C)C4(C)CCC3C2(C)C(OC(C)=O)C1 (centres undefined),121 to 122
5,CCn1cnc2c(cnc3c2cnn3CC)c1=O,167 to 169
6,CC(=O)c1c(C)nn2ccccc12,85.2 to 88.1
7,OC1CC2(CCNC2)c2ccc(F)cc21 (centres undefined),162 to 164
8,CC(C)(C)c1cc(O)no1,99 to 101
9,N#Cc1ccc(N2CCN(CC(=O)O)CC2=O)cc1,120
10,C=CCCCCCCCCC(O)CNC(=O)N(C)O (centres undefined),105 to 106
11,CN(C)C(=O)Nc1cnc(N(C)C)c(Cl)c1,139 to 141
12,c1coc(C2=NOCCS2)c1,147 to 150
13,Cn1cc(S(=O)(=O)Cl)c(=O)c2ccc(Cl)cc21,> 300
14,CC(=O)NC[C@H]1CN(c2ccc3c(c2)CCSCC3=O)C(=O)O1,232 to 233
15,O=c1ccc2cc(I)ccc2[nH]1,261
16,CCCCCCCCCCCCCCCCCCSc1ccc(C)cc1,54 to 55
17,C=C1C(O)CC(OC(C)=O)C2(C)C1CC1(C(C)(C)O)CC(O)C(C)=C1C(OC(=O)c1ccccc1)C2OC(C)=O (centres undefined),200 to 201
18,CCN(CC)C(=O)n1ccc(Sc2ccc(Br)cc2Cl)n1,77 to 79
19,O=CN1CCN(C2=C(O)C(=O)c3ccccc3C2=O)CC1,200 to 203
20,O=[N+]([O-])c1cc(S(=O)(=O)C(F)(F)F)c(-c2ccc(Cl)cc2)[nH]1,174 to 180
21,CN(C)c1ccc(NC(=O)N(CC2CCCCC2)C[C@H]2CCC[C@H](CN(CC3CCCCC3)C(=O)Nc3ccc(N(C)C)cc3)C2)cc1 (relative stereo),136 to 140
22,CCOC(=O)c1snnc1SC,64.5 to 65.5
23,COC[C@H]1CN(c2ccc(OCCC3(C(F)(F)F)OCCO3)cc2)C(=O)O1,112
24,COC(=O)c1ncsc1S(=O)(=O)Cl,94 to 97.5
25,CCCNC(=O)CCC(C)C1CCC2C3C(OC(C)=O)CC4CC(OO)(OO)CCC4(C)C3CC(OC(C)=O)C12C (centres undefined),120 to 129
26,CONC(=O)NC1CCCc2sccc21 (centres undefined),138

row,Compound,melting point [°C]
1,COc1ccc(C2CNCc3c(OC)cccc32)cc1OC (centres undefined),106 to 112
2,O=C(Nc1ccc(-n2nc(C(F)(F)F)cc2C(F)(F)F)cc1)c1c(Cl)ccc([N+](=O)[O-])c1Cl,160 to 161
3,Cc1nc(C(F)(F)F)ccc1C(=O)C1=C(O)C(C)(C)CCC1=O,75 to 77
4,O=C(c1ccc(-c2cnc3c(c2)N(Cc2c(Cl)cccc2Cl)C(=O)CN3)cc1)N1CCC(N2CCCC2)CC1,199
5,CCCCc1cc2cc(OCC(=O)OCC)c(Cl)c(Cl)c2s1,72 to 73
6,COCCOc1cc2ncnc(Cl)c2cc1OCCOC,108 to 109
7,CN(C(=O)OC(C)(C)C)c1ccc(C#CCCCOS(C)(=O)=O)cc1,85 to 87
8,CCC(=O)Nc1cccc(NC(=O)CC(C)(OC)OC)c1,115
9,C1=CNC=c2ccccc2=C1,128
10,CN1C(=O)C(C(=O)Nc2ccc(OC(F)(F)F)c(Cl)c2)C(=O)N(C)C1=O,160
11,CCOc1ccc(Br)c(Cl)c1F,48 to 48.5
12,O=c1[nH]c2cc(F)c(NCC3=CCCOC3)cc2o1,175 to 176
13,Nc1ccc2nccn2n1,198 to 202
14,CCN1C(=O)C(=O)N(c2c(C)cccc2C)C1=S,103 to 105
15,C=C(CCC(C)C1CCC2C3=C(C(=O)CC21C)C1(C)CCC(=O)C(C)C1CC3)C(C)C(=O)OC (centres undefined),100 to 102
16,Cc1ccc(C)c2c(=O)n(CCCN3CC=C(c4ccc(Cl)cc4)CC3)c(=O)[nH]c12,212 to 220
17,CC12CCC(=O)C=C1CC(O)C1C2CCC2(C)C(O)CCC12 (centres undefined),191 to 193
18,Cc1nc(-c2ccc(N)c(C#N)c2)c[nH]1,89 to 91
19,CC(=O)NCCn1nnnc1S,138 to 140
20,COC(=O)c1ccc(NC(=O)c2cc(C(C)C)c(C(C)C)s2)cc1Cl,153 to 154
21,COC(=O)c1sc(Cl)cc1N,99 to 101
22,CC1CC2C3CC(F)C4=CC(=O)C=CC4(C)C3C(O)CC2(C)C1C(=O)COC(=O)CCC(=O)O (centres undefined),212 to 214
23,C#CC(Oc1cc(C(=O)OC)cc(OC)c1OC)C1CC1 (centres undefined),93 to 94
24,O=C(Nc1cccc2ccccc12)N1C(=O)C2(CCCCC2)NC12CCCCC2,157 to 160
25,CC(=O)N1CCc2cc(C(=O)CCCCCBr)ccc21,110 to 111

# Further lines, results first:
row,melting point [°C],Compound
1,159 to 160,COC1=C(c2ccccc2)C(CC(=O)O)OC1=O (centres undefined)
2,126 to 127,CCSc1nnc(-c2ccccc2)n1Cc1ccc(N)cc1
3,193 to 195,CC(=O)c1ccc2c(c1)ncn2-c1cccc(N2CCN(C(C)=NO)CC2)c1
4,215 to 217,COc1ccc(Nc2cccc3c2C(=O)N(C2CCC(=O)NC2=O)C3=O)cc1OC (centres undefined)
5,90 to 92,O=C(Oc1ccccc1Br)c1cc(-c2ccccc2)cn1CCc1ccccc1Br
6,95 to 97,CCN(CC)CCc1ccc2[nH]c(C)c(C(=O)O[C@@H](C)c3ccccc3)c2c1
7,146 to 147,COc1ccc(Cn2cc(C)c3ccc(C(=O)c4ccccc4)cc32)cc1
8,234 to 236,CC(=O)Oc1ccc(-n2cc(C(=O)OC3CCc4ccccc43)c(=O)cc2-c2cc3ccccc3s2)cc1 (centres undefined)
9,33,CC(C)(C)[Si](C)(C)Oc1ccc(-c2ccc(C3CCC(c4c(F)cccc4F)=N3)cc2)cc1 (centres undefined)
10,105 to 106,CC(=O)Oc1c(C)cc(OCC(=O)c2ccc(C(C)C)cc2)c2ccccc12
11,158,COC(=O)CSC1NC(=O)c2sccc2-n2cccc21 (centres undefined)
12,72.5 to 74.5,COc1ccccc1NC(=O)c1ccc(C)cc1
13,170 to 172,CCOC(=O)COC(CC)c1ccc(-c2ccc(Cl)cc2)cc1 (centres undefined)
14,106 to 107,CCO[PH](=O)Cc1cc(Oc2ccc(C(F)(F)F)cc2Cl)ccc1[N+](=O)[O-] (centres undefined)
15,118 to 120,CCOC(=O)CNC(=O)Oc1cccc2ccc(C)nc12
16,89 to 90,CCCCCCCCCCCCCCOc1cc(-c2ccccc2)c(OCC(=O)O)c(-c2ccccc2)c1
17,199 to 201,CN1C2CCCC1CC(NC(=O)c1cc(Cl)cc3nc(-c4ccccc4)oc13)C2 (centres undefined)
18,185 to 186,CCCCNC(=O)/C(=C/C=C/c1cc2ccccc2[nH]1)OC
19,206,O=C(NO)c1ccc(C(=O)Nc2cccc(Nc3nc(-c4cccnc4)cs3)c2)cc1
20,213 to 214,COc1ccc(-c2c(C)c3ccc(O)cc3oc2=O)c(O)c1
21,175 to 180,CC(C)(C)OC(=O)N[C@@H]1C(=O)N2C(C(=O)OC(c3ccccc3)c3ccccc3)=C(/C=C3\CCN(CC4CC4)C3=O)CS[C@H]12
22,75 to 77,OCc1nn(-c2ccccc2)c2c1CCCC2
23,229 to 230,O=C(NNc1ccccc1)c1nc(Cl)c(Cl)[nH]1
24,159 to 161,Cc1c(CC(=O)O)c2cc(O)c(F)cc2n1C(=O)c1ccccc1
25,145 to 151,CC(N)CC(=O)N(c1ccc(Nc2ccccc2)cc1)C(C)C (centres undefined)
26,96.5 to 97,ClC(Cl)(Cl)c1nc(NCc2ccccc2)nc(C(Cl)(Cl)Cl)n1
27,283 to 287,COc1ccc(-c2cc3ncc(SC)c(O)c3s2)cc1

row,melting point [°C],Compound
1,216 to 217,CN(c1ccc(O)cc1)c1nc2cc(Cl)ccc2o1
2,164 to 166,CCCCCCc1ccc(-c2ccc(C(=O)Oc3ccc(C(=O)O)c(Cl)c3)cc2)cc1
3,65,CCCCC(Cc1cccnc1)(C(=O)O)S(=O)(=O)c1ccc(OC)cc1 (centres undefined)
4,105,CCC(O)(c1cc(OC)cc(OCc2ccc3ccccc3c2)c1)c1nccs1 (centres undefined)
5,162 to 163,CCCc1ccc(OCc2ccc(OCc3nc(-c4ccccc4)oc3C)cc2)cc1OCC(=O)O
6,235,O=C(O)COc1ccc(-c2nc3cnccc3[nH]2)c(O)c1
7,248 to 250,COCc1c(C=O)ncc2[nH]c3cccc(Cc4ccc(Cl)cc4)c3c12
8,86 to 87,COc1ccnc(CSc2nc3cc(-n4ccnc4)c(F)cc3[nH]2)c1
9,280,COc1ccc(-c2[nH]nc3c2C(=O)c2c(NC=O)cccc2-3)cc1
10,167 to 168,Cc1nc2c3c(c(C(=O)NCCO)cc2n1C)CCC1(Cc2ccccc2C1)N3
11,55 to 56,CCOC(CBr)(OCC)c1ccc(OC)cc1
12,72 to 74,COC(=O)CC1Oc2ccccc2Oc2ccccc21 (centres undefined)
13,74 to 77,CNC(=S)NS(=O)(=O)c1cc(CCNC(=O)/C=C/c2cccs2)ccc1OC
14,97 to 99,CC(C)(C)OC(=O)C=Cc1cc(Br)cc(Cc2cccnc2)c1
15,108 to 110,CN(C(=O)OC(C)(C)C)c1cc(Oc2ccccc2N2CCCCC2)ccc1N
16,104 to 105,COC(=O)c1c(OCc2ccccc2)ccc2c1CC[C@H](NC(C)(C)C)[C@@H]2O (relative stereo)
17,125 to 126,Cc1cccc(CCOc2cccc(-c3cccc(C(=O)O)c3)n2)c1
18,289 to 290,O=C(O)c1cc(O)c2c3c(cc(Br)c2n1)S(=O)c1ccccc1-3 (centres undefined)
19,262 to 265,COc1ccc(-c2ccnc3c(C(N)=O)ncn23)cc1OC
20,153 to 154,CCOC(=O)c1c(CN2CCOCC2)nc2cc(OC)c(OC)cc2c1-c1ccccc1OC
21,136 to 137,COC(=O)Cc1coc2cc(OCc3cc(-c4ccc(Cl)cc4)on3)ccc12
22,71 to 72,CCCn1nc(-c2ccc(OC(=O)CC(C)(C)C)cc2)c2cccc(Cl)c21
23,291 to 293,COc1cccc2cc3c(c(-c4ccc5c(c4)OCO5)c12)C(=O)NC3=O
24,284 to 285,COc1cc2c(=O)n3nc(C(=O)O)cc3n(C)c2cc1OC
25,158 to 159,CCCCCCOc1ccc(C(=O)Nc2ccccc2Oc2cccc(OCc3nnn[nH]3)c2)cc1
26,154 to 155,CCCn1nc2c(N)nc3c(c2c1CCCc1cc(-c2ccccc2)no1)CCCC3
